Measurements taken from patent US20050032042A1, “Anti-retroviral analysis by mass spectrometry” (priority 2003, published 2005).

Tests used:
[1] = in vivo; cited from earlier work
[2] = in vivo; cited from earlier work; remark: listed apart in the source
[3] = cited from earlier work
[4] = for Free Plasma (f) vs Total Plasma (tp) regression equation / r, free plasma vs total plasma / Saliva (s) vs Total Plasma (tp) regression equation / r, saliva vs total plasma: human; for Saliva (s) vs Total Plasma (tp) regression equation / r, saliva vs total plasma / correlation of free drug or saliva drug concentration with total drug concentration (in words): in vivo
Method: Protein binding and free drug measurement: An Institutional Review Board (IRB) approved protocol was developed for the assessment of free drug concentrations by measuring both the saliva and free drug in plasma utilizing the tandem mass spectrometric methods for plasma or serum measurement. […] A bigger sample is injected for the free drug measurement (50 uL vs 10 uL for plasma/serum.). Free drug concentrations can be measured by using either equilibrium dialysis or, more commonly, devices with molecular cutoff filters such as the Amicon Centrifree micropartition system (Millipore Corporation, Bedford, Mass.) or the Worthington Diagnostics “ultrafree” system (Worthington, Jacksonville, Fla.). Plasma ultrafiltrate is obtained by centrifuging 1 mL of plasma in Amicon system and then deproteinising as described for serum/plasma previously (15, 40).

Structure (SMILES) | Trough Concentration [1] | C max. [2] [ng/mL] | C min. [2] | t ½ [2] [h] | Protein Bindings % [3] [%] | Free Plasma (f) vs Total Plasma (tp) regression equation [4] | r, free plasma vs total plasma [4] | Saliva (s) vs Total Plasma (tp) regression equation [4] | r, saliva vs total plasma [4] | correlation of free drug or saliva drug concentration with total drug concentration (in words) [4] | Vd [2] [L/kg]
CC(C)Nc1cccnc1N1CCN(C(=O)c2cc3cc(NS(C)(=O)=O)ccc3[nH]2)CC1 [Delavirdine] | 3000 to 8000 ng/mL | 16000 | 3000 ng/mL | 6 | 99 |  |  |  |  |  | 
O=c1[nH]cnc2c1ncn2[C@H]1CC[C@@H](CO)O1 [Didanosine] | 100 to 300 ng/mL | 24000 |  |  |  | f = 0.19tp + 47 | 0.749 | s = 0.29tp + 20 | 0.912 | good correlations | 0.8
CC(C)(C)NC(=O)[C@@H]1CN(Cc2cccnc2)CCN1C[C@@H](O)C[C@@H](Cc1ccccc1)C(=O)N[C@H]1c2ccccc2C[C@H]1O [Indinavir] |  | 10000 |  |  |  |  |  |  |  |  | 
Nc1ccn([C@@H]2CS[C@H](CO)O2)c(=O)n1 [Lamivudine] | 100 to 1000 ng/mL | 1800 |  |  |  |  |  |  |  |  | 
Cc1cccc(C)c1OCC(=O)N[C@@H](Cc1ccccc1)[C@@H](O)C[C@H](Cc1ccccc1)NC(=O)[C@H](C(C)C)N1CCCNC1=O [Lopinavir] |  |  |  |  |  |  |  | s = 0.05tp + 194 | 0.777 | good correlations | 
Cc1c(O)cccc1C(=O)N[C@@H](CSc1ccccc1)[C@H](O)CN1C[C@H]2CCCC[C@H]2C[C@H]1C(=O)NC(C)(C)C [Nelfinavir] | 1000 ng/mL | 4000 | 1000 ng/mL | 5 | 98 |  |  | s = 0.0026tp + 78 | 0.047 | not | 4
Cc1ccnc2c1NC(=O)c1cccnc1N2C1CC1 [Nevirapine] | 3000 ng/mL | 20000 | 3000 ng/mL | 30 | 60 | f = 0.36tp + 483 | 0.909 |  | 0.901 | good correlations | 1.2
CC(C)c1nc(CN(C)C(=O)N[C@H](C(=O)N[C@@H](Cc2ccccc2)C[C@H](O)[C@H](Cc2ccccc2)NC(=O)OCc2cncs2)C(C)C)cs1 [Ritonavir] | 1000 ng/mL | 14000 | 1000 ng/mL | 4 |  |  |  | s = 0.043tp + 109 | 0.991 | good correlations | 0.4
CC(C)(C)NC(=O)[C@@H]1C[C@@H]2CCCC[C@@H]2CN1C[C@@H](O)[C@H](Cc1ccccc1)NC(=O)[C@H](CC(N)=O)NC(=O)c1ccc2ccccc2n1 [Saquinavir] | 15 to 40 ng/mL | 500 |  | 12 |  |  |  |  |  |  | 10
Cc1cn([C@H]2C=C[C@@H](CO)O2)c(=O)[nH]c1=O [Stavudine] | 20 ng/mL | 2000 | 20 ng/mL | 1.1 |  | f = 0.66tp − 4 | 0.924 |  | 0.909 | good correlations | 1.0
Nc1ccn([C@H]2CC[C@@H](CO)O2)c(=O)n1 [Zalcitabine] | Undetectable | <25 | undetectable | 2.0 | <5 |  |  |  |  |  | 0.5
Cc1cn([C@H]2C[C@H](N=[N+]=[N-])[C@@H](CO)O2)c(=O)[nH]c1=O [Zidovudine] | <20 ng/mL | 1800 | <20 ng/mL | 1.2 | <5 | f = 0.14tp + 27 | 0.907 |  |  | good correlations | 1.4
